Results reported in the supplement of paper PMC8882468.
± gives the standard deviation of the averaged measurements.

Key:
Test in all cases: CTG-3D luminescence at 96 h relative to day-0 seeding control (ratio to day 0); higher = more growth / less cytotoxicity
[1] = test system: HCI-002 (organoid from a triple-negative breast cancer xenograft)
Experimental: (§1)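 PDxO 3D drug screen (set 2), 8-point dose, 96 h; CTG-3D luminescence normalised to day-0 seeding control (mean of 4 wells each).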

[2] = test system: HCI-003.E2 (organoid from an ER-positive breast cancer xenograft)
Experimental: as §1

[3] = test system: HCI-017.E2 (organoid from an ER-positive breast cancer xenograft)
Experimental: as §1

[4] = test system: HCI-019 (organoid from a triple-negative breast cancer xenograft)
Experimental: as §1

[5] = test system: HCI-023 (organoid from a triple-negative breast cancer xenograft)
Experimental: as §1

[6] = test system: HCI-027 (organoid from a triple-negative breast cancer xenograft)
Experimental: as §1

## CC/C(=C(\c1ccc(O)cc1)c1ccc(OCCN(C)C)cc1)c1ccccc1 [4-hydroxytamoxifen]
[1]; 12.5 pM, days in culture: 127
  CTG-3D luminescence at 96 h: 2.42
[1]; 12.5 pM, days in culture: 155
  CTG-3D luminescence at 96 h: 4.99
[1]; 12.5 pM, days in culture: 168
  CTG-3D luminescence at 96 h: 3.07
[1]; 0.00025 µM, days in culture: 127
  CTG-3D luminescence at 96 h: 2.73
[1]; 0.00025 µM, days in culture: 155
  CTG-3D luminescence at 96 h: 5.16
[1]; 0.00025 µM, days in culture: 168
  CTG-3D luminescence at 96 h: 2.97
[1]; 0.005 µM, days in culture: 127
  CTG-3D luminescence at 96 h: 2.8
[1]; 0.005 µM, days in culture: 155
  CTG-3D luminescence at 96 h: 5.23
[1]; 0.005 µM, days in culture: 168
  CTG-3D luminescence at 96 h: 4.33
[1]; 0.1 µM, days in culture: 127
  CTG-3D luminescence at 96 h: 2.99
[1]; 0.1 µM, days in culture: 155
  CTG-3D luminescence at 96 h: 5.86
[1]; 0.1 µM, days in culture: 168
  CTG-3D luminescence at 96 h: 2.96
[1]; 1 µM, days in culture: 127
  CTG-3D luminescence at 96 h: 2.6
[1]; 1 µM, days in culture: 155
  CTG-3D luminescence at 96 h: 4.71
[1]; 1 µM, days in culture: 168
  CTG-3D luminescence at 96 h: 3.6
[1]; 10 µM, days in culture: 127
  CTG-3D luminescence at 96 h: 2.18
[1]; 10 µM, days in culture: 155
  CTG-3D luminescence at 96 h: 4.14
[1]; 10 µM, days in culture: 168
  CTG-3D luminescence at 96 h: 0.901
[1]; 100 µM, days in culture: 127
  CTG-3D luminescence at 96 h: 0.0155
[1]; 100 µM, days in culture: 155
  CTG-3D luminescence at 96 h: 0.0228
[1]; 100 µM, days in culture: 168
  CTG-3D luminescence at 96 h: 0.00411
[1]; 625 fM, days in culture: 127
  CTG-3D luminescence at 96 h: 2.75
[1]; 625 fM, days in culture: 155
  CTG-3D luminescence at 96 h: 4.09
[1]; 625 fM, days in culture: 168
  CTG-3D luminescence at 96 h: 4.11
[2]; 12.5 pM
  CTG-3D luminescence at 96 h: 2.27 ± 0.25
[2]; 0.00025 µM
  CTG-3D luminescence at 96 h: 2.32 ± 0.47
[2]; 0.005 µM
  CTG-3D luminescence at 96 h: 2.33 ± 0.64
[2]; 0.1 µM
  CTG-3D luminescence at 96 h: 2.5 ± 0.95
[2]; 1 µM
  CTG-3D luminescence at 96 h: 1.94 ± 0.076
[2]; 10 µM
  CTG-3D luminescence at 96 h: 1.18 ± 0.44
[2]; 100 µM
  CTG-3D luminescence at 96 h: 0.0128 ± 0.00097
[2]; 625 fM
  CTG-3D luminescence at 96 h: 2.7 ± 0.64
[3]; 12.5 pM
  CTG-3D luminescence at 96 h: 2.22 ± 0.55
[3]; 12.5 pM, days in culture: 85
  CTG-3D luminescence at 96 h: 2.08
[3]; 0.00025 µM
  CTG-3D luminescence at 96 h: 2.39 ± 0.3
[3]; 0.00025 µM, days in culture: 85
  CTG-3D luminescence at 96 h: 1.78
[3]; 0.005 µM
  CTG-3D luminescence at 96 h: 2.07 ± 0.11
[3]; 0.005 µM, days in culture: 85
  CTG-3D luminescence at 96 h: 1.81
[3]; 0.1 µM
  CTG-3D luminescence at 96 h: 2.2 ± 0.46
[3]; 0.1 µM, days in culture: 85
  CTG-3D luminescence at 96 h: 2.09
[3]; 1 µM
  CTG-3D luminescence at 96 h: 1.83 ± 0.2
[3]; 1 µM, days in culture: 85
  CTG-3D luminescence at 96 h: 1.49
[3]; 10 µM
  CTG-3D luminescence at 96 h: 1.95 ± 0.45
[3]; 10 µM, days in culture: 85
  CTG-3D luminescence at 96 h: 1.08
[3]; 100 µM
  CTG-3D luminescence at 96 h: 0.0156 ± 0.00072
[3]; 100 µM, days in culture: 85
  CTG-3D luminescence at 96 h: 0.0372
[3]; 625 fM
  CTG-3D luminescence at 96 h: 2.35 ± 0.15
[3]; 625 fM, days in culture: 85
  CTG-3D luminescence at 96 h: 2.06
[4]; 12.5 pM, days in culture: 173
  CTG-3D luminescence at 96 h: 1.97
[4]; 12.5 pM, days in culture: 194
  CTG-3D luminescence at 96 h: 1.24
[4]; 12.5 pM, days in culture: 215
  CTG-3D luminescence at 96 h: 2.34
[4]; 0.00025 µM, days in culture: 173
  CTG-3D luminescence at 96 h: 1.2
[4]; 0.00025 µM, days in culture: 194
  CTG-3D luminescence at 96 h: 0.815
[4]; 0.00025 µM, days in culture: 215
  CTG-3D luminescence at 96 h: 1.56
[4]; 0.005 µM, days in culture: 173
  CTG-3D luminescence at 96 h: 1.04
[4]; 0.005 µM, days in culture: 194
  CTG-3D luminescence at 96 h: 2.23
[4]; 0.005 µM, days in culture: 215
  CTG-3D luminescence at 96 h: 1.23
[4]; 0.1 µM, days in culture: 173
  CTG-3D luminescence at 96 h: 1.81
[4]; 0.1 µM, days in culture: 194
  CTG-3D luminescence at 96 h: 0.96
[4]; 0.1 µM, days in culture: 215
  CTG-3D luminescence at 96 h: 1.28
[4]; 1 µM, days in culture: 173
  CTG-3D luminescence at 96 h: 1.85
[4]; 1 µM, days in culture: 194
  CTG-3D luminescence at 96 h: 2.13
[4]; 1 µM, days in culture: 215
  CTG-3D luminescence at 96 h: 1.14
[4]; 10 µM, days in culture: 173
  CTG-3D luminescence at 96 h: 0.914
[4]; 10 µM, days in culture: 194
  CTG-3D luminescence at 96 h: 0.944
[4]; 10 µM, days in culture: 215
  CTG-3D luminescence at 96 h: 0.473
[4]; 100 µM, days in culture: 173
  CTG-3D luminescence at 96 h: 0.0117
[4]; 100 µM, days in culture: 194
  CTG-3D luminescence at 96 h: 0.00421
[4]; 100 µM, days in culture: 215
  CTG-3D luminescence at 96 h: 0.00476
[4]; 625 fM, days in culture: 173
  CTG-3D luminescence at 96 h: 1.34
[4]; 625 fM, days in culture: 194
  CTG-3D luminescence at 96 h: 2.45
[4]; 625 fM, days in culture: 215
  CTG-3D luminescence at 96 h: 1.5
[5]; 12.5 pM, days in culture: 223
  CTG-3D luminescence at 96 h: 2.56
[5]; 12.5 pM, days in culture: 238
  CTG-3D luminescence at 96 h: 1.29
[5]; 12.5 pM, days in culture: 252
  CTG-3D luminescence at 96 h: 2.34
[5]; 0.00025 µM, days in culture: 223
  CTG-3D luminescence at 96 h: 1.54
[5]; 0.00025 µM, days in culture: 238
  CTG-3D luminescence at 96 h: 1.34
[5]; 0.00025 µM, days in culture: 252
  CTG-3D luminescence at 96 h: 1.72
[5]; 0.005 µM, days in culture: 223
  CTG-3D luminescence at 96 h: 1.73
[5]; 0.005 µM, days in culture: 238
  CTG-3D luminescence at 96 h: 1.35
[5]; 0.005 µM, days in culture: 252
  CTG-3D luminescence at 96 h: 1.66
[5]; 0.1 µM, days in culture: 223
  CTG-3D luminescence at 96 h: 1.73
[5]; 0.1 µM, days in culture: 238
  CTG-3D luminescence at 96 h: 1.29
[5]; 0.1 µM, days in culture: 252
  CTG-3D luminescence at 96 h: 1.88
[5]; 1 µM, days in culture: 223
  CTG-3D luminescence at 96 h: 1.16
[5]; 1 µM, days in culture: 238
  CTG-3D luminescence at 96 h: 1.4
[5]; 1 µM, days in culture: 252
  CTG-3D luminescence at 96 h: 1.73
[5]; 10 µM, days in culture: 223
  CTG-3D luminescence at 96 h: 1.64
[5]; 10 µM, days in culture: 238
  CTG-3D luminescence at 96 h: 1.46
[5]; 10 µM, days in culture: 252
  CTG-3D luminescence at 96 h: 1.63
[5]; 100 µM, days in culture: 223
  CTG-3D luminescence at 96 h: 0.0104
[5]; 100 µM, days in culture: 238
  CTG-3D luminescence at 96 h: 0.00895
[5]; 100 µM, days in culture: 252
  CTG-3D luminescence at 96 h: 0.00241
[5]; 625 fM, days in culture: 223
  CTG-3D luminescence at 96 h: 2.1
[5]; 625 fM, days in culture: 238
  CTG-3D luminescence at 96 h: 1.43
[5]; 625 fM, days in culture: 252
  CTG-3D luminescence at 96 h: 1.66
[6]; 12.5 pM, days in culture: 145
  CTG-3D luminescence at 96 h: 1.3
[6]; 12.5 pM, days in culture: 158
  CTG-3D luminescence at 96 h: 2.04
[6]; 12.5 pM, days in culture: 164
  CTG-3D luminescence at 96 h: 1.94
[6]; 12.5 pM, days in culture: 176
  CTG-3D luminescence at 96 h: 3.64
[6]; 12.5 pM, days in culture: 186
  CTG-3D luminescence at 96 h: 1.39
[6]; 0.00025 µM, days in culture: 145
  CTG-3D luminescence at 96 h: 2.12
[6]; 0.00025 µM, days in culture: 158
  CTG-3D luminescence at 96 h: 2.76
[6]; 0.00025 µM, days in culture: 164
  CTG-3D luminescence at 96 h: 2.01
[6]; 0.00025 µM, days in culture: 176
  CTG-3D luminescence at 96 h: 3.33
[6]; 0.00025 µM, days in culture: 186
  CTG-3D luminescence at 96 h: 2.63
[6]; 0.005 µM, days in culture: 145
  CTG-3D luminescence at 96 h: 1.24
[6]; 0.005 µM, days in culture: 158
  CTG-3D luminescence at 96 h: 2.17
[6]; 0.005 µM, days in culture: 164
  CTG-3D luminescence at 96 h: 1.46
[6]; 0.005 µM, days in culture: 176
  CTG-3D luminescence at 96 h: 1.45
[6]; 0.005 µM, days in culture: 186
  CTG-3D luminescence at 96 h: 2.25
[6]; 0.1 µM, days in culture: 145
  CTG-3D luminescence at 96 h: 1.83
[6]; 0.1 µM, days in culture: 158
  CTG-3D luminescence at 96 h: 2.08
[6]; 0.1 µM, days in culture: 164
  CTG-3D luminescence at 96 h: 2.16
[6]; 0.1 µM, days in culture: 176
  CTG-3D luminescence at 96 h: 1.08
[6]; 0.1 µM, days in culture: 186
  CTG-3D luminescence at 96 h: 1.45
[6]; 1 µM, days in culture: 145
  CTG-3D luminescence at 96 h: 1.18
[6]; 1 µM, days in culture: 158
  CTG-3D luminescence at 96 h: 1.97
[6]; 1 µM, days in culture: 164
  CTG-3D luminescence at 96 h: 1.19
[6]; 1 µM, days in culture: 176
  CTG-3D luminescence at 96 h: 2.78
[6]; 1 µM, days in culture: 186
  CTG-3D luminescence at 96 h: 0.447
[6]; 10 µM, days in culture: 145
  CTG-3D luminescence at 96 h: 0.699
[6]; 10 µM, days in culture: 158
  CTG-3D luminescence at 96 h: 1.36
[6]; 10 µM, days in culture: 164
  CTG-3D luminescence at 96 h: 1.86
[6]; 10 µM, days in culture: 176
  CTG-3D luminescence at 96 h: 0.382
[6]; 10 µM, days in culture: 186
  CTG-3D luminescence at 96 h: 0.154
[6]; 100 µM, days in culture: 145
  CTG-3D luminescence at 96 h: 0.00408
[6]; 100 µM, days in culture: 158
  CTG-3D luminescence at 96 h: 0.00947
[6]; 100 µM, days in culture: 164
  CTG-3D luminescence at 96 h: 0.0151
[6]; 100 µM, days in culture: 176
  CTG-3D luminescence at 96 h: 0.00762
[6]; 100 µM, days in culture: 186
  CTG-3D luminescence at 96 h: 0.0028
[6]; 625 fM, days in culture: 145
  CTG-3D luminescence at 96 h: 1.73
[6]; 625 fM, days in culture: 158
  CTG-3D luminescence at 96 h: 4.26
[6]; 625 fM, days in culture: 164
  CTG-3D luminescence at 96 h: 1.7
[6]; 625 fM, days in culture: 176
  CTG-3D luminescence at 96 h: 2.5
[6]; 625 fM, days in culture: 186
  CTG-3D luminescence at 96 h: 2.27
